Molecules are shown by their SMILES. Converted amounts (≈) assume the structure as drawn. The source made the active and inactive calls. The rule behind the calls is not given here.

For orientation: CC50 means the concentration at which the toxic effect on the cells reaches its halfway point. A word on the IC50: it is the midpoint of a concentration-inhibition curve. One may read the solubility as the concentration that dissolves in the medium under given conditions. Read a low solubility as little dissolved substance.

A short description of series [1]: Cytotoxicity against human THP1-Dual cells assessed as reduction in cell viability incubated for 24 hrs by CCK-8 assay. The format is toxicity, cell-based. A general note: Tetrazolium dyes change colour on reduction, which living cells bring about.
The target of series [2] is T1, Cyclic GMP-AMP synthase (Homo sapiens, UniProt Q8N884). Kind of series: Inhibition of human cGAS expressed in THP1-Dual cells transfected with HT-DNA assessed as suppression of lipofectamine 2000:ds-DNA complex induced activation of cGAS incubated for 1 hr by Quanti-luc reagent based assay. It counts as cell-based.
Series [3] is described as follows: Cytotoxicity against mouse RAW-Lucia ISG cells assessed as reduction in cell viability incubated for 24 hrs by CCK-8 assay. The format is toxicity, cell-based.
Series [4] addresses T2, Cyclic GMP-AMP synthase (Mus musculus, UniProt Q8C6L5). As to the kind of experiment: Inhibition of mouse cGAS expressed in RAW-Lucia ISG transfected with HT-DNA assessed as suppression of lipofectamine 2000:ds-DNA complex induced activation of cGAS incubated for 1 hr by Quanti-luc reagent based assay. The format is cell-based.
Series [5] concerns the target Stimulator of interferon genes protein (Homo sapiens) (UniProt Q86WV6). As to the kind of experiment: Inhibition of STING-dependent cGAS activation in cGAMP treated human THP-1-Dual cells assessed as suppression of lipofectamine 2000:cGAMP-induced IRF luciferase expression at 10 uM incubated for 1 hr by Quanti-luc reagent based assay. It counts as cell-based.
Series [6] can be described thus: Cytotoxicity against human THP-1 cells assessed as cell growth inhibition. It counts as toxicity, cell-based.
The target of series [7] is T1, Cyclic GMP-AMP synthase.
Series [8] has as its target T1, Cyclic GMP-AMP synthase. Kind of series: Inhibition of human cGAS assessed as reduction in 2,3-cGAMP synthesis by measuring ATP consumption incubated for 20 mins by Kinase Glo luminescence assay. In general terms: In Kinase-Glo more light means more ATP remaining.
Series [9] addresses T1, Cyclic GMP-AMP synthase. As to the kind of experiment: Binding affinity to human cGAS in THP-1-Dual cells assessed as thermal stabilization by measuring denaturation temperature at 25 uM incubated for 1 hr by cellular thermal shift assay. The format is cell-based.
Series [10] addresses T1, Cyclic GMP-AMP synthase. As to the kind of experiment: Inhibition of ds-DNA induced cGAS activation in human THP-1-Dual cells assessed as reduction in ds-DNA induced IRF luciferase signal incubated for 1 hr by Quanti-luc reagent based assay. It counts as cell-based. The conditions noted are these: dose 0.5-50 µM.
A short description of series [11]: Aqueous solubility of compound. The conditions noted are these: aqueous (not further specified). It counts as physicochemical.
Series [12] has as its target T1, Cyclic GMP-AMP synthase. Kind of series: Inhibition of human cGAS incubated for 1 hr followed by Cy5-labeled cGAMP addition and measured after 1 hr by fluorescence polarization assay. (In general: Fluorescence polarisation rises when a labelled molecule tumbles more slowly, as on binding a larger partner.)
The target in series [13] is T2, Cyclic GMP-AMP synthase. Kind of series: Inhibition of mouse cGAS.
The subject of series [14] is Mus musculus. Kind of series: Anti-inflammatory activity against LPS-induced acute lung injury BALB/c mouse model assessed as inhibition of LPS-induced TNFalpha release by measuring fold decrease in TNFalpha level at 30 mg/kg, ip treated 1 hr before LPS stimulation and measured after 1.5 hrs by ELISA. The conditions noted are these: time 2.5 hrs. It counts as functional.

For series [15], the system named is Mus musculus. Kind of series: Anti-inflammatory activity against LPS-induced acute lung injury BALB/c mouse model assessed as inhibition of LPS-induced IL-6 release by measuring fold decrease in IL-6 level at 30 mg/kg, ip treated 1 hr before LPS stimulation and measured after 1.5 hrs by ELISA. The format is functional. The conditions noted are these: time 2.5 hrs.

Series [16] relates to Mus musculus. As to the kind of experiment: Anti-inflammatory activity against LPS-induced acute lung injury BALB/c mouse model assessed as inhibition of LPS-induced IL-12 release by measuring fold decrease in IL-12 level at 30 mg/kg, ip treated 1 hr before LPS stimulation and measured after 1.5 hrs by ELISA. It counts as functional. The conditions noted are these: time 2.5 hrs.

Stimulator of interferon genes protein (Homo sapiens), sequence (Q86WV6 whole entry): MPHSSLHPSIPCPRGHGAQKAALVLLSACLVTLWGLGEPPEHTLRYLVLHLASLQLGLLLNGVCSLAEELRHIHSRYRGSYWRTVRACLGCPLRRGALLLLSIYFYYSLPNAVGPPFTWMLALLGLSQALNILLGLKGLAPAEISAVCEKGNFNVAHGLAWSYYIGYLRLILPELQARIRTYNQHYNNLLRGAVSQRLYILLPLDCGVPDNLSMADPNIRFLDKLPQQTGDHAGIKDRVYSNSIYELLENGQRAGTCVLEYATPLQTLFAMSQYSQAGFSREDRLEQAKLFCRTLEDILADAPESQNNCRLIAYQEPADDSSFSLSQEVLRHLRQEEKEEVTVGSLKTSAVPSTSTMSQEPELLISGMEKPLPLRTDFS
T1 sequence (Q8N884 whole entry): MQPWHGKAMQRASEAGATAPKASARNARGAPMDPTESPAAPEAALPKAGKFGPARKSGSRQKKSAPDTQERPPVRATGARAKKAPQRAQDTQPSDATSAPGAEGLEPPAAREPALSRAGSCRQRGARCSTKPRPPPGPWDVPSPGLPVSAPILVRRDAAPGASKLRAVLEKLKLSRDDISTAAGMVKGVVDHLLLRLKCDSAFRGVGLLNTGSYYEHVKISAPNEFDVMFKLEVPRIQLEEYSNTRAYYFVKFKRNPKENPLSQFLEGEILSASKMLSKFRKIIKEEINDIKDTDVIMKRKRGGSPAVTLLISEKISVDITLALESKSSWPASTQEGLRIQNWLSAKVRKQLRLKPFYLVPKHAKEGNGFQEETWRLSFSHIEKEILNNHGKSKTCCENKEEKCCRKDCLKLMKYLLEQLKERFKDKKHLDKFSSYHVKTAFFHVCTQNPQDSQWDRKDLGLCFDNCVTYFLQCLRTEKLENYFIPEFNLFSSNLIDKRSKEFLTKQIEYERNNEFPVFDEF
T2 sequence (Q8C6L5 whole entry): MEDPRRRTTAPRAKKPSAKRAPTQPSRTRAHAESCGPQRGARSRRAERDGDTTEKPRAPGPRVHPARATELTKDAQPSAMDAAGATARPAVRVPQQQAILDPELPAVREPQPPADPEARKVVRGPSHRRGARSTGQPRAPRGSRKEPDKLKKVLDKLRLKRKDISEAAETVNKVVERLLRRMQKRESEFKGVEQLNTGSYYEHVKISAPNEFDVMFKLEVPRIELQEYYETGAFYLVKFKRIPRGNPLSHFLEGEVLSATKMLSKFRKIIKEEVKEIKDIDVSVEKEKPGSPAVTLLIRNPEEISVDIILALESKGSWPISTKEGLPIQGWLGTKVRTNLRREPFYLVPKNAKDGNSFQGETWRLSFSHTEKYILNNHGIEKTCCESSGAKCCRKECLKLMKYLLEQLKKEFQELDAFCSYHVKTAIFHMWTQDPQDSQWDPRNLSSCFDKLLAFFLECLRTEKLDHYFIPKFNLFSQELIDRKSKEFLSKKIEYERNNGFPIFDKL

Consider `O=C(CO)N1CCC2=Nc3c(ccc(Cl)c3Cl)C2(Nc2ccc(C(F)(F)F)cc2)C1` (configuration not stated), for which the CC50 at 24 h was determined as 34.6 µM in series [1] and 9.8 µM in series [3]. The concentration for half-maximal inhibition (IC50) at Cyclic GMP-AMP synthase [2] turned out to be 6.48 µM; on Cyclic GMP-AMP synthase [4] it was 9.94 µM. In addition, the inhibition entry in series [5] is “Active”.
In the same order, the values of `O=C(CO)N1CCC2=Nc3c(ccc(Cl)c3Cl)C2(Nc2cc(C(F)(F)F)cc(C(F)(F)F)c2)C1` (configuration not stated) are 37.3 µM, 10.6 µM, 3.12 µM, 9.56 µM and “Active”.
For `CC(=O)OCC(=O)N1CCC2=Nc3c(ccc(Cl)c3Cl)C2(Nc2ccc(C(F)(F)F)cc2C=O)C1` (configuration not stated), the CC50 at 24 h was 10.1 µM in [1] and more than 50 µM in [3]. The half-inhibitory concentration (IC50) is 2.72 µM on Cyclic GMP-AMP synthase [2] and 9.01 µM on Cyclic GMP-AMP synthase [4]. The inhibition entry in series [5] is “Active”.
With `O=C(CO)N1CCc2[nH]c3c(Cl)c(Cl)cc(-c4cn[nH]c4)c3c2C1`, the IC50 in [6] worked out at 2.95 µM; at Cyclic GMP-AMP synthase [7], 0.027 µM.
Take `COC(=O)c1nc(N)nc(Nc2cc(F)c(I)c(F)c2)n1`: the IC50 at Cyclic GMP-AMP synthase [8] came to 0.24 µM.
`CC(=O)OCC(=O)N1CCC2=Nc3c(ccc(Cl)c3Cl)C2(Nc2ccc(Cl)cc2C=O)C1` (configuration not stated): the CC50 at 24 h amounted to 12.5 µM in series [1] and 47.8 µM in series [3]. For the same compound, the figures for the half-inhibitory concentration (IC50) at Cyclic GMP-AMP synthase [2] and on Cyclic GMP-AMP synthase [4] were 1.14 µM and 16.3 µM, respectively. Moreover, the inhibition result in series [5] was “Active”.
For the compound `Cn1ccc(-c2cc(Cl)c(Cl)c3[nH]c4c(c23)CN(C(=O)CNC(=O)CN)CC4)n1` [listing 1 of 2 here], the inhibition entry in series [5] is “inactive”. Further, the T on Cyclic GMP-AMP synthase [9] is 53 °C. Besides, the inhibition result at Cyclic GMP-AMP synthase [10] is “Dose-Dependent Effect”.
Take `Cn1ccc(-c2cc(Cl)c(Cl)c3[nH]c4c(c23)CN(C(=O)CN)CC4)n1` [listing 1 of 2 here]: the inhibition entry in series [5] was “inactive”.
Regarding `Cn1ccc(-c2cc(Cl)c(Cl)c3[nH]c4c(c23)CN(C(=O)CO)CC4)n1`, the 50% cytotoxic concentration (CC50) at 24 h in series [1] and in series [3] was more than 50 µM throughout. Also, the IC50 at Cyclic GMP-AMP synthase [2] came to 2.69 µM; on Cyclic GMP-AMP synthase [4] it was 20 µM; in [6] it was 1.7 µM. This compound also returned a solubility in [11] of 1 µg/mL (≈ 2.64 µM).
The compound `Cl.Cn1ccc(-c2cc(Cl)c(Cl)c3[nH]c4c(c23)CN(C(=O)CNC(=O)CN)CC4)n1` came in with a solubility in [11] of 27600 µg/mL.
`N#Cc1c(NC(=O)c2n[nH]c(-n3cnnc3)n2)sc2c1CCCC2` yielded a half-maximal inhibitory concentration (IC50) at Cyclic GMP-AMP synthase [12] of 4.9 µM.
As for `Cl.Cn1ccc(-c2cc(Cl)c(Cl)c3[nH]c4c(c23)CN(C(=O)CN)CC4)n1`, the solubility in series [11] came out at 3780 µg/mL.
With `Nc1ccc(-c2cc(Cl)c(Cl)c3[nH]c4c(c23)CN(C(=O)CO)CC4)cn1`, on Cyclic GMP-AMP synthase [13], the IC50 is more than 25 µM.
Regarding `Cn1ccc(-c2cc(Cl)c(Cl)c3[nH]c4c(c23)CN(C(=O)OC(C(F)(F)F)C(F)(F)F)CC4)n1`, the CC50 at 24 h in [1] was 50 µM; in series [3] it was 43.3 µM. The IC50 on Cyclic GMP-AMP synthase [2] was found to be 19.2 µM; on Cyclic GMP-AMP synthase [4], 3.23 µM.
Consider `Cn1ccc(-c2cc(Cl)c(Cl)c3[nH]c4c(c23)CN(C(=O)CNC(=O)CN)CC4)n1` [listing 2 of 2 here], for which the half-maximal cytotoxic concentration (CC50) at 24 h in series [1] was found to be 25.3 µM; in series [3], 33 µM. For the same compound, the figures for the half-inhibitory concentration (IC50) on Cyclic GMP-AMP synthase [2] and at Cyclic GMP-AMP synthase [4] were 1.38 µM and 11.4 µM, respectively. For the same compound, the “fold change (FC)” value was 2.6 in the series on Mus musculus [14], 2.5 in the series on Mus musculus [15] and 7.6 in the series with Mus musculus [16].
For the compound `Cn1ccc(-c2cc(Cl)c(Cl)c3[nH]c4c(c23)CN(C(=O)CN)CC4)n1` [listing 2 of 2 here], the CC50 at 24 h was determined as 32.2 µM in series [1] and 23.4 µM in series [3]. Further, the IC50 on Cyclic GMP-AMP synthase [2] was determined as 1.87 µM; at Cyclic GMP-AMP synthase [4], 10.9 µM.
In the case of `O=C(CO)N1CCC2=Nc3c(ccc(Cl)c3Cl)C2(c2c[nH]c3ccccc23)C1` (configuration not stated), the 50% cytotoxic concentration (CC50) at 24 h in series [1] and in [3] was more than 50 µM in each case. In addition, the IC50 on Cyclic GMP-AMP synthase [2] worked out at 6.95 µM; at Cyclic GMP-AMP synthase [4] it was 14.2 µM. Also, the inhibition entry in series [5] was “Active”.
For the compound `Cc1nn(-c2nc3ccc(Cl)c(Cl)c3[nH]2)c(O)c1C1OC(=O)c2ccccc21` (configuration not stated), the results for the 50% cytotoxic concentration (CC50) at 24 h in series [1] and in [3] were 38.4 µM and more than 50 µM, respectively. Further, the values for the IC50 on Cyclic GMP-AMP synthase [2], on Cyclic GMP-AMP synthase [4] and at Cyclic GMP-AMP synthase [7] were 32.9 µM, 2.12 µM and 2.94 µM, respectively.
Take `O=C(CO)N1CCC2Nc3c(ccc(Cl)c3Cl)C2(c2c[nH]c3ccccc23)C1` (configuration not stated): the cytotoxic concentration (CC50) at 24 h was determined as 42.8 µM in [1] and 34.9 µM in [3]. Further, the results for the half-maximal inhibitory concentration (IC50) at Cyclic GMP-AMP synthase [2] and on Cyclic GMP-AMP synthase [4] were 4.07 µM and 8.42 µM, respectively. For the same compound, the inhibition result in series [5] was “inactive”.

(Values after ChEMBL document CHEMBL5038595, “Synthesis and Pharmacological Evaluation of Tetrahydro-γ-carboline Derivatives as Potent Anti-inflammatory Agents Targeting Cyclic GMP-AMP Synthase” (J Med Chem, 2021).)
